According to paper PMC8692993, “PPARα and PPARγ activation is associated with pleural mesothelioma invasion but therapeutic inhibition is ineffective” (iScience, 2021):
Read-outs that look alike come from different tables or passages of the source.

Key:
[1] = target: T1, PPARα (Homo sapiens, UniProt Q07869); assay: LanthaScreen TR-FRET binding assay, PPARα; conditions: 2 h incubation, mean of 3 replicates ± SEM
T1 sequence (Q07869 239-466 limits assumed): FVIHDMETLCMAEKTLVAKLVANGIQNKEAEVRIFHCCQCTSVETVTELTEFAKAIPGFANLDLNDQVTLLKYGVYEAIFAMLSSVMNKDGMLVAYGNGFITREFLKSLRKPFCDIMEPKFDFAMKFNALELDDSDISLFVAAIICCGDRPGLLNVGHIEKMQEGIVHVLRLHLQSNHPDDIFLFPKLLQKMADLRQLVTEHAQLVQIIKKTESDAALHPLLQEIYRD
Protocol: (§1) The LanthaScreen™ TR-FRET binding assay was performed following the manufacturer's guidelines (PV4894, Invitrogen) as follows, 20 mM stock solution of the ligand or control in DMSO were serially diluted using 100% DMSO to produce a range of concentrations from 100 μM to 1 pM. The test compound solutions were mixed with the reaction buffer in a 1 (ligand) in 10 (reaction buffer) dilution for a final 2X ligand concentration. This was mixed with the reaction components (glutathione S-transferase (GST)-PPPARγLBD (0.5 nM)/, terbium (Tb)-labelled anti-GST antibody (5 nM) and Fluormone pan-PPAR green (5 nM for PPARγ; 20 nM for PPARα) at room temperature in a ratio of 8 μLl 2X ligand solution: 4 μLl of 4XFluormone: and 4 μLl 4X GST-PPPARγLBD/terbium (Tb)-labelled anti-GST antibody to produce a final reaction mixture volume of 16 μL. The concentration of DMSO in the final reaction mixture was 5%. The reaction mixture was kept at room temperature for 2 h prior to recording the TR-FRET emission spectra using a CLARIOstar Plus microplate reader (BMG Labtech). […] Results are expressed as the ratio of fluorescence intensity at 520 nm (Fluormone emission) and 490 nm (Tb emission). […] For each compound three serial dilutions were prepared and measured separately. The IC50 and SEM values were determined using a sigmoidal dose-response equation with varying slope using GraphPad Prism.

[2] = target: T2, PPARγ (Homo sapiens, UniProt P37231); assay: LanthaScreen TR-FRET binding assay, PPARγ; conditions: 2 h incubation, mean of 3 replicates ± SEM
T2 sequence (P37231 238-503 limits assumed): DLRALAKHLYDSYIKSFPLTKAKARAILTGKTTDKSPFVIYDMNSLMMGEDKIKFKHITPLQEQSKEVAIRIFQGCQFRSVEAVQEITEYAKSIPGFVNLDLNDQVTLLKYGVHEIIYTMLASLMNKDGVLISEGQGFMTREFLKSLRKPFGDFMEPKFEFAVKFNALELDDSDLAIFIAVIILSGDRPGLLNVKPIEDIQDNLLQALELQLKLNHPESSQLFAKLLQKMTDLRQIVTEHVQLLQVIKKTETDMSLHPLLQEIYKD
Protocol: as §1

[3] = target: T1, PPARα; set-up: method as in Leesnitzer et al., 2002; conditions: displacement of [3H]GW2331, incubation time 1 h, ref Leesnitzer et al., 2002, read-out: Lit. Binding assay, IC50; cited from earlier work
[4] = target: T2, PPARγ; set-up: method as in Leesnitzer et al., 2002; conditions: displacement of [3H]rosiglitazone, incubation time 1 h, ref Leesnitzer et al., 2002, read-out: Lit. Binding assay, IC50; cited from earlier work
[5] = target: T1, PPARα; assay: HG5LN reporter cell assay, PPARα-mediated transcription; assay type: cell-based; set-up: expressed in transfected cells; host or cells: HG5LN (HeLa-derived, GAL4RE-luciferase)
From the text: (§2) Nuclear receptors, including PPARα and γ, are ligand-inducible transcription factors that form heterodimers with retinoid X receptors and bind to specific DNA sites located in the enhancer/promoter region of target genes, releasing co-repressors and/or recruiting co-activators ([Wang, 2010]). We therefore assessed the functional consequences of the ligands on PPARα and γ-mediated transcriptional activation in reporter cell lines. These cell lines were generated as previously reported by a two-step transfection procedure ([Seimandi et al., 2005]). First, a stable cell line, HG5LN, expressing the reporter gene (GAL4RE-luciferase) was developed from the HeLa cell line. These cells were then transfected with a plasmid expressing the C-terminal ligand-binding domain of PPARα or γ fused to GAL4 DNA-binding domain. The parental HG5LN cells were used as a control to test non-specific modulation of luciferase expression by the small molecules investigated (Figure S4A). The HG5LN PPAR reporter cells therefore allow comparison of the functional activity at, and selectivity of different ligands for, PPARα and γ. […] As expected ([Abu Aboud et al., 2015]), GW6471 potently antagonized PPARα (Figure 4E and Table 1).
(§3) A transfected […] cell line HG5LN was used ([Balaguer et al., 2001]). These cells were cultured in Dubecco's modified Eagle's medium (DMEM-F12 Thermo Fisher Scientific) with phenol red and supplemented with 5% foetal calf serum, incubated at 37°C in a 5% CO2/95% air-humidified atmosphere. Luciferase assays were performed in DMEM-F12 (Thermo Fisher Scientific) without phenol red and supplemented with 5% dextran-coated charcoal-stripped FCS (test culture medium), puromycin (Thermo Fisher Scientific) 0.5 μg/mL and geneticin (Thermo Fisher Scientific) 1 mg/mL. Cells were seeded at a density of 5 x 10^4 cells/well and incubated for 8 h at 37°C in a 96-well plate white opaque tissue culture plates (Becton-Dickinson). Tested compounds were added in serial dilutions and incubated for 16 h at 37°C. After incubation, the medium containing the effectors was carefully removed and replaced by culture medium containing 3 x 10^−4 mol/L luciferin (Sigma Chemicals). After 5 min incubation at room temperature, the 96-well plate was then read with a Microbeta Wallac luminometer and the luminescence was measured in the living cells for 2 s. All experiments were performed in quadruplicate.

[6] = target: T2, PPARγ; assay: HG5LN reporter cell assay, PPARγ-mediated transcription; assay type: cell-based; set-up: expressed in transfected cells; host or cells: HG5LN (HeLa-derived, GAL4RE-luciferase)
From the text: as §2, §3

[7] = target: T1, PPARα; set-up: expressed in transfected cells; host or cells: HG5LN (HeLa-derived, GAL4RE-luciferase); method as in Seimandi et al., 2005; conditions: ref Seimandi et al., 2005, cited from earlier work
[8] = target: T2, PPARγ; set-up: expressed in transfected cells; host or cells: HG5LN (HeLa-derived, GAL4RE-luciferase); method as in Seimandi et al., 2005; conditions: inhibition of agonism by 20 nM rosiglitazone (BRL49653), ref Seimandi et al., 2005, read-out: Functionality, Lit. IC50; cited from earlier work
[9] = tested on: brain metastases from melanoma and breast cancer; set-up: method as in Zou et al., 2019; conditions: murine models; ref Zou et al., 2019; cited from earlier work
[10] = tested on: SC model of melanoma or a metastatic model of lung cancer; set-up: method as in Zou et al., 2019; conditions: ref Zou et al., 2019; cited from earlier work
[11] = tested on: VGE62; assay: MTT cell metabolic activity assay, VGE62; assay type: cell-based, human; conditions: VGE62, arachidonic acid 5 and 10 μM, p <0.05
Protocol: (§4) Cells were harvested and seeded in 96-flat well plates (Corning) at a density of 5 x 10^4 cells/mL overnight. Media was removed and 100 μL media with GW6471 or GW9662 at indicated concentrations was added to each well. Cell viability and toxicity were measured at 48 h. Cells were incubated with 50 μL of a 2 mg/mL solution of (3-(4,5-dimethyl-thiazole-2-yl)-2,5-[…] tetrazolium (MTT, Sigma-Aldrich) in PBS for 4 h and then exposed to 100 μL dimethyl sulfoxide (DMSO; Sigma-Aldrich). Cell viability was measured by absorption at 570 nm in a microplate spectrophotometer (Spectromax 250 plate reader). Results are shown as relative cell viability.

[12] = tested on: AB1; assay: MTT cell metabolic activity assay, AB1; assay type: cell-based, mouse; conditions: AB1, arachidonic acid 5 and 10 μM, p <0.05
Protocol: as §4

[13] = tested on: AE17; assay: MTT cell metabolic activity assay, AE17; assay type: cell-based, mouse; conditions: AE17, arachidonic acid 5 and 10 μM, p <0.05
Protocol: as §4

[14] = tested on: HAP1, HAP1 PPARA KO, and HAP1 PPARG KO cell lines; assay: MTT cell metabolic activity assay, HAP1 lines; assay type: cell-based, human; conditions: arachidonic acid 5 and 10 μM, p <0.0001
Protocol: as §4

In the case of `O=C(Nc1ccccc1)c1cc([N+](=O)[O-])ccc1Cl` [GW9662], the IC50 [1] is listed as 214 ± 64.6 nM, the IC50 [2] is listed as 12.4 ± 3.6 nM and the IC50 [3] is listed as 39 ± 4 nM. For the same compound, the IC50 [4] was 5.4 ± 0.6 nM, the “Functionality, Type” value [5] was “partial agonist” and the IC50 ([5]; inhibition of agonism by 10 nM GW7647, 16 h incubation, mean of 3 experiments ± SEM) was 131 ± 31 nM. The “Functionality, Type” value [6] was “antagonist”, the IC50 ([6]; inhibition of agonism by 30 nM rosiglitazone, 16 h incubation, mean of 3 experiments ± SEM) was 4 ± 2.6 nM and the EC50 ([7]; PPARα partial agonism, read-out: Functionality, Lit. EC50) was 26 ± 9 nM. For the same compound, the IC50 ([7]; PPARα, inhibition of agonism by 30 nM GW7647, read-out: Functionality, Lit. IC50) was 188 ± 43 nM, the “Maximal activity reached (partial agonism)” value ([7]; PPARα) was “j 33% of maximal activity ([Seimandi et al., 2005])” and the IC50 [8] was 3.8 ± 1.3 nM.
In the case of `O=C(Nc1ccncc1)c1cc([N+](=O)[O-])ccc1Cl` [T0070907], the Brain metastases [9] is given as “significant decrease of brain metastases from melanoma and breast cancer” and the Tumor growth [10] is given as “did not find an inhibitory effect on tumor growth”.
In the case of `CCCCC/C=C\C/C=C\C/C=C\C/C=C\CCCC(=O)O` [arachidonic acid], the “Proliferation (MTT)” value [11] is reported as “increased proliferation in a concentration-dependent manner”, the “Proliferation (MTT)” value [12] is reported as “increased proliferation in a concentration-dependent manner” and the “Proliferation (MTT)” value [13] is reported as “increased proliferation in a concentration-dependent manner”. The “Proliferation (MTT) in HAP1 parental versus PPARA/PPARG KO cells” value [14] was “significant increase in proliferation, but only in the HAP1 parental cell line”.
